Laboratory results reported in patent US20100056565A1, “Heterocyclic Derivatives as M3 Muscarinic Receptors” (priority 2007, published 2010).
pKi: −log10 of the molar value. Where a name gives a salt, the structure may show the parent alone.

Target: T1, Recombinant human M3 receptor (Homo sapiens, UniProt P20309)
T1 construct: expressed in transfected cells; host or cells: CHO-K1 cells (membranes)
Assay: biochemical
Assay type: binding
Details: M3, SPA format assay; read-out: Ki in the SPA format assay
Experimental: Recombinant human M3 receptor was expressed in CHO-K1 cells. Cell membranes were prepared and binding of [3H]-N-methyl scopolamine ([3H]-NMS) and compounds was assessed by a scintillation proximity assay (SPA). The incubation time was 16 hours at room temperature in the presence of 1% (v/v) DMSO. The assay was performed in white 96 well clear-bottomed NBS plates (Corning). Prior to the assay, the CHO cell membranes containing M3 receptor were coated onto SPA WGA (Wheat germ agglutinin) beads (GE Healthcare). Non specific binding was determined in the presence of 1 μM Atropine.
Radioactivity was measured on a Microbeta scintillation counter (PerkinElmer) using a 3H protocol with a 2 minutes per well read time. […] Concentration dependent inhibition of [3H]-NMS binding by compounds was expressed as pIC50.

T1 sequence (P20309 whole entry): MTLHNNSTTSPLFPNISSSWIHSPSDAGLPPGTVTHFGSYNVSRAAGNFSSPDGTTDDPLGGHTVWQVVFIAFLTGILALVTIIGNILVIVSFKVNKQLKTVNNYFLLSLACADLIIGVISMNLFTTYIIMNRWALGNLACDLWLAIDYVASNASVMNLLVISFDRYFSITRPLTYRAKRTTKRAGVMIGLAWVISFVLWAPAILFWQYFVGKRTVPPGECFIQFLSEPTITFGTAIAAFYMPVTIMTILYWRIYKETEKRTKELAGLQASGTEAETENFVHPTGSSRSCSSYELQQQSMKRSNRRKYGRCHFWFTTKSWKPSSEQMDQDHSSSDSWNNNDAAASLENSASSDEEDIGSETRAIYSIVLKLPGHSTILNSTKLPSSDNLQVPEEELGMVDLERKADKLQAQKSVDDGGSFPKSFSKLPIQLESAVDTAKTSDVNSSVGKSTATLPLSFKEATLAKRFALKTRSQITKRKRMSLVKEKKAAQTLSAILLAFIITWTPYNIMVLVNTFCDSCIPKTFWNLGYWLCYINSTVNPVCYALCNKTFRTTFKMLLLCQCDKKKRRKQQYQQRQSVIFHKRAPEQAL

| Structure (SMILES) | pKi |
| --- | --- |
| O[C@](c1ccccc1)(c1ncc(C[N+]23CCC(CC2)[C@@H](Oc2ccc(F)cc2)C3)o1)C1CCCCC1 [Example 66, (R)-1-[2-((R)—Cyclohexyl-hydroxy-phenyl-methyl)-oxazol-5-ylmethyl]-3-(4-fluoro-phenoxy)-1-azonia-bicyclo[2.2.2]octane; bromide] | 10.05 |

Same assay, conditions: SPA format; read-out: M3 Ki (SPA format)

| Structure (SMILES) | pKi |
| --- | --- |
| O[C@](c1ccccc1)(c1ncc(C[N+]23CCC(CC2)C(CCc2ccccc2)C3)o1)C1CCCCC1 (stereo partly drawn) [Example 36, 1-[2-((R)—Cyclohexyl-hydroxy-phenyl-methyl)-oxazol-5-ylmethyl]-3-phenethyl-1-azonia-bicyclo[2.2.2]octane; bromide] | > 8.30 |
| OC(c1ccccc1)(c1ccccc1)c1ncc(C[N+]23CCC(CC2)C(CCc2ccccc2)C3)o1 (stereo not drawn) [Example 37, 1-[2-(Hydroxy-diphenyl-methyl)-oxazol-5-ylmethyl]-3-phenethyl-1-azonia-bicyclo[2.2.2]octane; bromide] | > 8.30 |
| CC(C)=CCO[C@H]1C[N+]2(Cc3cnc([C@](O)(c4ccccc4)C4CCCCC4)o3)CCC1CC2 [Example 38, (R)-1-[2-((R)-cyclohexyl-hydroxy-phenyl-methyl)-oxazol-5-ylmethyl]-3-(3-methyl-but-2-enyloxy)-1-azonia-bicyclo[2.2.2]octane; formate] | > 8.30 |
| OC(c1ccccc1)(c1ccccc1)c1ncc(C[N+]23CCC(CC2)C(SCc2ccccc2)C3)o1 (stereo not drawn) [Example 39, 3-Benzylsulfanyl-1-[2-(hydroxy-diphenyl-methyl)-oxazol-5-ylmethyl]-1-azonia-bicyclo[2.2.2]octane; bromide,] | 7.70 to 8.30 |
| O[C@](c1ccccc1)(c1ncc(C[N+]23CCC(CC2)[C@H](SCc2ccccc2)C3)o1)C1CCCCC1 [Example 40, (S)-3-Benzylsulfanyl-1-[2-((R)-cyclohexyl-hydroxy-phenyl-methyl)-oxazol-5-ylmethyl]-1-azonia-bicyclo[2.2.2]octane; bromide] | > 8.30 |
| O[C@](c1ccccc1)(c1ncc(C[N+]23CCC(CC2)[C@@H](SCc2ccccc2)C3)o1)C1CCCCC1 [Example 41, (R)-3-Benzylsulfanyl-1-[2-((R)-cyclohexyl-hydroxy-phenyl-methyl)-oxazol-5-ylmethyl]-1-azonia-bicyclo[2.2.2]octane; bromide] | > 8.30 |
| O[C@](c1ccccc1)(c1ncc(C[N+]23CCC(CC2)[C@H](CSc2ccccc2)C3)o1)C1CCCCC1 [Example 43, (S)-1-[2-((R)—Cyclohexyl-hydroxy-phenyl-methyl)-oxazol-5-ylmethyl]-3-phenylsulfanylmethyl-1-azonia-bicyclo[2.2.2]octane; bromide] | > 8.30 |
| O[C@](c1ccccc1)(c1ncc(C[N+]23CCC(CC2)[C@@H](OCc2ccc(Cl)cc2)C3)o1)C1CCCC1 [Example 44, (R)-3-(4-chloro-benzyloxy)-1-[2-((R)-cyclopentyl-hydroxy-phenyl-methyl)-oxazol-5-ylmethyl]-1-azonia-bicyclo[2.2.2]octane; formate] | > 8.30 |
| O[C@](c1ccccc1)(c1ncc(C[N+]23CCC(CC2)[C@@H](OCc2ccc(Cl)c(Cl)c2)C3)o1)C1CCCC1 [Example 45, (R)-1-[2-((R)-cyclopentyl-hydroxy-phenyl-methyl)-oxazol-5-ylmethyl]-3-(3,4-dichloro-benzyloxy)-1-azonia-bicyclo[2.2.2]octane; formate] | > 8.30 |
| O[C@](c1ccccc1)(c1ncc(C[N+]23CCC(CC2)[C@@H](OCc2ccsc2)C3)o1)C1CCCCC1 [Example 46, (R)-1-[2-((A)-Cyclohexyl-hydroxy-phenyl-methyl)-oxazol-5-ylmethyl]-3-(thiophen-3-ylmethoxy)-1-azonia-bicyclo[2.2.2]octane; bromide] | > 8.30 |
| O[C@](c1ccccc1)(c1ncc(C[N+]23CCC(COCc4ccccc4)(CC2)CC3)o1)C1CCCCC1 [Example 47, 4-Benzyloxymethyl-1-[2-((R)-cyclohexyl-hydroxy-phenyl-methyl)-oxazol-5-ylmethyl]-1-azonia-bicyclo[2.2.2]octane; bromide] | < 7.70 |
| OC(c1ccccc1)(c1ccccc1)c1ncc(C[N+]23CCC(CC2)[C@@H](OCc2cccc(F)c2)C3)o1 [Example 49, (R)-3-(3-fluoro-benzyloxy)-1-[2-(hydroxy-diphenyl-methyl)-oxazol-5-ylmethyl]-1-azonia-bicyclo[2.2.2]octane; formate] | > 8.30 |
| C=CCO[C@H]1C[N+]2(Cc3cnc([C@](O)(c4ccccc4)C4CCCCC4)o3)CCC1CC2 [Example 51, (R)-3-allyloxy-1-[2-((R)-cyclohexyl-hydroxy-phenyl-methyl)-oxazol-5-ylmethyl]-1-azonia-bicyclo[2.2.2]octane; formate] | > 8.30 |
| O[C@](c1ccccc1)(c1ncc(C[N+]23CCC(CC2)[C@@H](OCc2ccccc2F)C3)o1)C1CCCCC1 [Example 52, (R)-1-[2-((R)-cyclohexyl-hydroxy-phenyl-methyl)-oxazol-5-ylmethyl]-3-(2-fluoro-benzyloxy)-1-azonia-bicyclo[2.2.2]octane; formate] | > 8.30 |
| O[C@](c1ccccc1)(c1ncc(C[N+]23CCC(CC2)[C@@H](OCCC2CCCCC2)C3)o1)C1CCCCC1 [Example 53, (R)-3-(2-cyclohexyl-ethoxy)-1-[2-((R)-cyclohexyl-hydroxy-phenyl-methyl)-oxazol-5-ylmethyl]-1-azonia-bicyclo[2.2.2]octane; formate] | > 8.30 |
| O[C@](c1ccccc1)(c1ncc(C[N+]23CCC(COc4ccccc4)(CC2)CC3)o1)C1CCCCC1 [Example 55, 1-[2 ((R)—Cyclohexyl-hydroxy-phenyl-methyl)-oxazol-5-ylmethyl]-4-phenoxymethyl-1-azonia-bicyclo[2.2.2]octane; bromide] | > 8.30 |
| O[C@](c1ccccc1)(c1nnc(C[N+]23CCC(CC2)[C@@H](OCc2ccccc2)C3)o1)C1CCCCC1 [Example 56, (R)-3-benzyloxy-1-[5-((R)-cyclohexyl-hydroxy-phenyl-methyl)-[1,3,4]oxadiazol-2-ylmethyl]-1-azonia-bicyclo[2.2.2]octane; formate] | > 8.30 |
| OC(c1ccccc1)(c1ccccc1)c1ncc(C[N+]23CCC(CC2)[C@@H](Oc2ccc(C(F)(F)F)cc2)C3)o1 [Example 57, (R)-1-[2-(Hydroxy-diphenyl-methyl)-oxazol-5-ylmethyl]-3-(4-trifluoromethyl-phenoxy)-1-azonia-bicyclo[2.2.2]octane; bromide] | 7.70 to 8.30 |
| Cc1ccc(O[C@H]2C[N+]3(Cc4cnc(C(O)(c5ccccc5)c5ccccc5)o4)CCC2CC3)cc1 [Example 58, (R)-1-[2-(Hydroxy-diphenyl-methyl)-oxazol-5-ylmethyl]-3-p-tolyloxy-1-azonia-bicyclo[2.2.2]octane; bromide] | > 8.30 |
| Cc1ccc(O[C@H]2C[N+]3(Cc4cnc(C(O)(c5ccccc5)c5ccccc5)o4)CCC2CC3)cc1Cl [Example 59, (R)-3-(3-Chloro-4-methyl-phenoxy)-1-[2-(hydroxy-diphenyl-methyl)-oxazol-5-ylmethyl]-1-azonia-bicyclo[2.2.2]octane; bromide] | > 8.30 |
| Cc1ccc(O[C@H]2C[N+]3(Cc4cnc([C@](O)(c5ccccc5)C5CCCCC5)o4)CCC2CC3)cc1Cl [Example 60, (R)-3-(3-Chloro-4-methyl-phenoxy)-1-[2-((R)-cyclohexyl-hydroxy-phenyl-methyl)-oxazol-5-ylmethyl]-1-azonia-bicyclo[2.2.2]octane; bromide] | > 8.30 |
| O[C@](c1ccccc1)(c1ncc(C[N+]23CCC(CC2)C(Cc2ccccc2)C3)o1)C1CCCCC1 (stereo partly drawn) [Example 61, 3-benzyl-1-[2-((R)-cyclohexyl-hydroxy-phenyl-methyl)-oxazol-5-ylmethyl]-1-azonia-bicyclo[2.2.2]octane; formate] | > 8.30 |
| OC(c1ccccc1)(c1ccccc1)c1ncc(C[N+]23CCC(CC2)[C@@H](Oc2cccc(Cl)c2)C3)o1 [Example 62, (R)-3-(3-Chloro-phenoxy)-1-[2-(hydroxy-diphenyl-methyl)-oxazol-5-ylmethyl]-1-azonia-bicyclo[2.2.2]octane; bromide] | > 8.30 |
| OC(c1ccccc1)(c1ccccc1)c1ncc(C[N+]23CCC(CC2)[C@@H](Oc2ccc(Cl)cc2)C3)o1 [Example 63, (R)-3-(4-Chloro-phenoxy)-1-[2-(hydroxy-diphenyl-methyl)-oxazol-5-ylmethyl]-1-azonia-bicyclo[2.2.2]octane; bromide] | > 8.30 |
| O[C@](c1ccccc1)(c1ncc(C[N+]23CCC(CC2)[C@@H](Oc2ccc(Cl)cc2)C3)o1)C1CCCCC1 [Example 64, (R)-3-(4-Chloro-phenoxy)-1-[2-((R)-cyclohexyl-hydroxy-phenyl-methyl)-oxazol-5-ylmethyl]-1-azonia-bicyclo[2.2.2]octane; bromide] | > 8.30 |
| O[C@](c1ccccc1)(c1ncc(C[N+]23CCC(CC2)[C@@H](Oc2cccc(Cl)c2)C3)o1)C1CCCCC1 [Example 65, (R)-3-(3-Chloro-phenoxy)-1-[2-((R)-cyclohexyl-hydroxy-phenyl-methyl)-oxazol-5-ylmethyl]-1-azonia-bicyclo[2.2.2]octane; bromide] | > 8.30 |
| O[C@](c1ccccc1)(c1ncc(C[N+]23CCC(CC2)[C@@H](Oc2ccc(F)cc2)C3)o1)C1CCCCC1 [Example 66, (R)-1-[2-((R)—Cyclohexyl-hydroxy-phenyl-methyl)-oxazol-5-ylmethyl]-3-(4-fluoro-phenoxy)-1-azonia-bicyclo[2.2.2]octane; bromide] | > 8.30 |
| O[C@](c1ccccc1)(c1ncc(C[N+]23CCC(CC2)[C@@H](Oc2cccc(F)c2)C3)o1)C1CCCCC1 [Example 67, (R)-1-[2-((R)—Cyclohexyl-hydroxy-phenyl-methyl)-oxazol-5-ylmethyl]-3-(3-fluoro-phenoxy)-1-azonia-bicyclo[2.2.2]octane; bromide] | > 8.30 |
| OC(c1ccccc1)(c1ccccc1)c1ncc(C[N+]23CCC(CC2)[C@@H](Sc2ccccc2)C3)o1 [Example 68, 1-[2-(Hydroxy-diphenyl-methyl)-oxazol-5-ylmethyl]-3-phenylsulfanyl-1-azonia-bicyclo[2.2.2]octane; bromide] | > 8.30 |
